Laboratory results: patent US20160346249A1 (priority 2012, published 2016)

Key:
[1] = Brain and plasma levels of amitifadine and lactam metabolite EB-10101 in rat; assay type: in vivo; design: metabolite plasma level (mean±SEM): unit not given here; conditions: for metabolite plasma level (mean±SEM): amitifadine 10 mg/kg po
Protocol: The studies are conducted in accordance with the Institutional Animal Care and Use Committee guidelines. […] At 0.5, 1, 2, and 4 hour after dosage, animals are briefly anesthetized in a chamber containing 4% isoflurane and rapidly decapitated. Trunk blood is collected in heparinized tubes (9 units/ml whole blood), immediately chilled to 4° C., centrifuged, and the plasma is frozen at −80° C. until analyzed. Brains are quickly removed, bisected along the midline, and frozen at −80° C. until analyzed.
Plasma and brain samples are allowed to thaw on ice and are homogenized in a 20 ml glass vial in two volumes of ice cold water using a handheld homogenizer (VDI 12, VWR International). Standard curves are prepared in water, control plasma, and control brain homogenate. Equal volumes (100 μl) of plasma and brain homogenate samples, distilled water and internal standard are mixed in 1.5 ml polypropylene tubes and 300 μl of acetonitrile is added to each mixture. Samples are then mixed thoroughly by placing on a shaker at 200 RPM for 40 minutes at room temperature. The samples are then centrifuged at 10,000×g for 10 minutes at 4° C. and the supernatant (200 μl) is transferred to a tube containing 2 μl of 10% formic acid. The samples are subjected to a Zorbax SBC18 Solvent Saver Plus 3.0×150 mm 3.5-μm column on a Shimadzu Prominence LC. […] The concentration of compound in the column effluent is measured using an Applied Biosystems API-3200 triple quadrupole mass spectrometer.

[2] = Acute intravenous or oral rat bioavailability study; assay type: in vivo; conditions: plasma, oral 10 mg/kg vs IV 5 mg/kg, both sexes, read-out: absolute oral bioavailability
Protocol: Plasma samples were assayed using a validated LC/MS/MS assay.

[3] = Single-dose (25 mg) food effect crossover study in 24 men (DOV 947-003); assay type: in vivo, human; conditions: for AUC(0-inf) / AUC(0-t) / Cmax / Tmax / half-life: male, human, in vivo, po, single oral dose 25 mg, 24 healthy male subjects
[4] = Phase 2 efficacy study in patients with Major Depressive Disorder; assay type: in vivo, human
From the text: Subjects were identified who were between the ages of 18-65 (inclusive), and met criteria for Major Depressive Disorder in accordance with the Diagnostic and Statistical manual of Mental Disorders-IV-TR and confirmed by the MINI International Neuropsychiatric Interview.
Subjects were required to refrain from taking antidepressants, anticonvulsants including gabapentin and pregabalin, neuroleptics, MAO inhibitors, barbiturates, benzodiazepines, stimulants, antipsychotics, lithium, anxiolytics and beta blockers starting two weeks prior to the study and continuing until after the follow-up visit.
Samples were drawn to assess total bilirubin, alkaline phosphatase, ALT (SGPT), AST (SGOT), blood urea nitrogen (BUN), creatinine, glucose, uric acid, calcium, phosphorus, total protein, albumin, total cholesterol, LDL, HDL, triglycerides, sodium, potassium, bicarbonate, chloride, GGT and creatine kinase, Hepatitis B, C and HIV serologies, TSH, drug screen and serum pregnancy test for females.
Efficacy was determined by measuring the change from baseline in the Montgomery-Asberg Depression Rating Scale (MADRS), the HAMD-17, the Clinical Global Impression Global Improvement Scale (CGI-I), the Clinical Global Impression-Severity scale (CGI-S) and the Derogatis Interview for Sexual Functioning Self-Report (DISF-SR). […] Comparisons between treatment groups based on MADRS (the primary efficacy parameter), HAMD-17, Anhedonia, DISF-SR, CGI-I and CGI-S scores were analyzed using a mixed-repeated measures (MMRM) analysis model including factors for Subject, Visit, Treatment Arm and Baseline value as a covariate. Adjusted least-squares means from these models are presented. Comparisons between groups were made at each post-baseline visit using model-based contrasts and adjusted degrees of freedom. For these analyses no explicit data imputations were made prior to the analysis. Response and remission categorical data were analyzed using chi-square tests. Inferential analyses of safety data were conducted with ANOVA models or chi-square tests. Two-tail alpha was set to 0.05. All analyses were conducted using SAS version 9.2.

[5] = 100 mg, Visit 8, LOCF, Completers, 50% reduction or more of baseline total score
[6] = Visit 8 (Week 6), MMRM, MITT, n = 30

O=C1NCC2(c3ccc(Cl)c(Cl)c3)CC12 (centres unmarked) [EB-10101, 5-(3,4-dichloro-phenyl)-3-aza-bicyclo[3.1.0]hexan-2-one]
metabolite plasma level (mean±SEM) ([1]; 0.5 h): 1153±610
metabolite plasma level (mean±SEM) ([1]; 1 h): 1620±303
metabolite plasma level (mean±SEM) ([1]; 2 h): 3831±1127
metabolite plasma level (mean±SEM) ([1]; 4 h): 8896±794
Kp at 0.5 h ([1]; male, Sprague-Dawley, rat, brain and plasma, 10 mg/kg oral, 0.5 h, read-out: brain to plasma ratio): 1.1
Kp at 1 h ([1]; male, Sprague-Dawley, rat, brain and plasma, 10 mg/kg oral, 1 h, read-out: brain to plasma ratio): 1.3
Kp at 2 h ([1]; male, Sprague-Dawley, rat, brain and plasma, 10 mg/kg oral, 2 h, read-out: brain to plasma ratio): 1.4
Kp at 4 h ([1]; male, Sprague-Dawley, rat, brain and plasma, 10 mg/kg oral, 4 h, read-out: brain to plasma ratio): 1.7

Clc1ccc([C@]23CNC[C@H]2C3)cc1Cl [amitifadine, (+)-1-(3,4-dichlorophenyl)-3-azabicyclo[3.1.0]hexane]
bioavailability [2]: ≥ 77%
effect of food on exposure ([3]; fed vs fasted): no effect of food on exposure
AUC(0-inf) ([3]; Fasted): 1.29 µg·h/mL
AUC(0-t) ([3]; Fasted): 1.2 µg·h/mL
Cmax ([3]; Fasted): 0.272 µg/mL
Tmax ([3]; Fasted): 0.98 h
half-life ([3]; Fasted): 3.42 h
AUC(0-inf) ([3]; Fed): 1.43 µg·h/mL
AUC(0-t) ([3]; Fed): 1.32 µg·h/mL
Cmax ([3]; Fed): 0.224 µg/mL
Tmax ([3]; Fed): 2.57 h
half-life ([3]; Fed): 3.71 h
DISF-SR scores vs placebo ([4]; 100 mg, low and high baseline groups): no differences between (+)-1-(3,4-dichlorophenyl)-3-azabicyclo[3.1.0]hexane 100 mg and placebo
Response rate, HAMD-17 (%) [4, 5]: 55.00%
Response rate, MADRS (%) [4, 5]: 40.00%
Remission rate, HAMD-17 (%) ([4]; 100 mg, Visit 8, LOCF, Completers, HAMD-17 ≦ 7): 20.00%
Remission rate, MADRS (%) ([4]; 100 mg, Visit 8, LOCF, Completers, MADRS ≦ 12): 30.00%
Anhedonia factor (LS Mean - SE) [4, 6]: 7.92 (0.50)
CGI-I (LS Mean - SE) [4, 6]: 2.13 (0.20)
CGI-S (LS Mean - SE) [4, 6]: 3.31 (0.15)
HAMD-17 (LS Mean - SE) [4, 6]: 14.90 (1.40)
MADRS (LS Mean - SE) [4, 6]: 18.16 (1.21)
MADRS, Difference (95% CI) placebo vs drug ([4]; Visit 8, MMRM, MITT, P = 0.028): 3.83 (0.41, 7.26)
CGI-I, Difference (95% CI) placebo vs drug ([4]; Visit 8, MMRM, MITT, P = 0.030): 0.62 (0.06, 1.18)
Anhedonia factor, Difference (95% CI) placebo vs drug ([4]; Visit 8, MMRM, MITT, P = 0.049): 1.41 (0.01, 2.82)
HAMD-17, Difference (95% CI) placebo vs drug ([4]; Visit 8, MMRM, MITT, P = 0.125): 3.12 (−0.87, 7.12)
CGI-S, Difference (95% CI) placebo vs drug ([4]; Visit 8, MMRM, MITT, P = 0.306): 0.22 (−0.21, 0.66)
Diastolic BP - Standing, Mean Change from baseline ([4]; Visit 8, Safety Population, n = 33, P value vs. placebo 0.017): −3.00 mm Hg
Supine Pulse, Mean Change from baseline ([4]; Visit 8, Safety Population, n = 33, P value vs. placebo 0.145): 1.55 beats per minute
LDL Cholesterol Fasting, Mean Change from baseline ([4]; Visit 8, Safety Population, n = 33, P value vs. placebo 0.374): -4.29 mg/dL
Total Cholesterol Fasting, Mean Change from baseline ([4]; Visit 8, Safety Population, n = 33, P value vs. placebo 0.412): -5.86 mg/dL
Systolic BP - Standing, Mean Change from baseline ([4]; Visit 8, Safety Population, n = 33, P value vs. placebo 0.509): 0.069 mm Hg
Triglycerides Fasting, Mean Change from baseline ([4]; Visit 8, Safety Population, n = 33, P value vs. placebo […]): -12.00 mg/dL
Systolic BP - Supine, Mean Change from baseline ([4]; Visit 8, Safety Population, n = 33, P value vs. placebo 0.904): 2.58 mm Hg
Diastolic BP - Supine, Mean Change from baseline ([4]; Visit 8, Safety Population, n = 33, P value vs. placebo 0.961): −0.38 mm Hg
Weight, Mean Change from baseline ([4]; Visit 8, Safety Population, n = 33, P value vs. placebo 0.965): 0.078 kg
overall statistical effect size (Cohen's d), MADRS ([4]; Week 6): −0.63
MADRS total score, estimated LS mean change from baseline (MMRM) ([4]; Week 6, placebo […], p=0.028): 18.16
patients who reported an adverse treatment event ([4]; human, in vivo): 30.30%
Treatment-Emergent Adverse Event: Abdominal Pain (NOS), % of Patients ([4]; n = 33): 6.06%
Treatment-Emergent Adverse Event: Abdominal Pain (NOS), number of patients ([4]; n = 33): 2
Treatment-Emergent Adverse Event: Anxiety, % of Patients ([4]; n = 33): 6.06%
Treatment-Emergent Adverse Event: Anxiety, number of patients ([4]; n = 33): 2
Treatment-Emergent Adverse Event: Diarrhea NOS, % of Patients ([4]; n = 33): 6.06%
Treatment-Emergent Adverse Event: Diarrhea NOS, number of patients ([4]; n = 33): 2
Treatment-Emergent Adverse Event: Emotional Disturbance NOS, % of Patients ([4]; n = 33): 6.06%
Treatment-Emergent Adverse Event: Emotional Disturbance NOS, number of patients ([4]; n = 33): 2
Treatment-Emergent Adverse Event: Headache NOS, % of Patients ([4]; n = 33): 9.09%
Treatment-Emergent Adverse Event: Headache NOS, number of patients ([4]; n = 33): 3
Treatment-Emergent Adverse Event: Irritability, % of Patients ([4]; n = 33): 6.06%
Treatment-Emergent Adverse Event: Irritability, number of patients ([4]; n = 33): 2
Treatment-Emergent Adverse Event: Nausea, % of Patients ([4]; n = 33): 6.06%
Treatment-Emergent Adverse Event: Nausea, number of patients ([4]; n = 33): 2
Treatment-Emergent Adverse Event: Rash NOS, % of Patients ([4]; n = 33): 6.06%
Treatment-Emergent Adverse Event: Rash NOS, number of patients ([4]; n = 33): 2
Treatment-Emergent Adverse Event: Upper Respiratory Tract Infection NOS, % of Patients ([4]; n = 33): 6.06%
Treatment-Emergent Adverse Event: Upper Respiratory Tract Infection NOS, number of patients ([4]; n = 33): 2
